A short description of data set [1]: Percent complex determination, yttrium complexes (Sephadex C-25 cation exchange). The data set is classed as physicochemical. The conditions noted are these: for % Complex (10:1), Y: ligand/metal 10:1, pH 7.4. As to the method:
Complexes were made by preparing a 0.0003M yttrium solution in water. (YCl3.6H2 O, 303.26 g/mole; Y(OAc)3, 12.1% H2 O). Radioactive YCl3 (Oakridge National Laboratories) was added to give the desired number of counts. Ten μl of ligand solution (at 0.03M) were added to 990 μl of the Y solution, giving a ligand-to-metal ratio of 1:1. (Ten times the amount of ligand solution was used for a 10:1 ligand to metal ratio.) The pH was then adjusted to 7.4 using microliter quantities of hydrochloric acid or sodium hydroxide. The solution was then tested for the amount of complexed yttrium using the cation exchange method given below.
(§1) A disposable 10 ml plastic (Biorad) column was filled with 1 to 2 ml of water-swelled Sephadex™ C-25 cation exchange resin. The water was pressure eluted to the top of the resin. Fifteen μl of the complex (or more if counts were low) were added to the top of the resin. This was followed by 2 ml of 4:1 (V:V) isotonic saline:conc. ammonium hydroxide solution as an eluent which was allowed to drip into a counting tube. This was also pressure eluted to the top of the resin. An additional 2 ml of the eluent were added and the column pressure eluted to remove all liquid. The dried resin was then placed in a third counting tube and the three tubes counted on a NaI well counter using a Canberra multichannel analyzer linked to a computer. The percent complex was determined by dividing the number of counts in the two elutions by the total counts in the elutions plus the column, all times 100. By this method, uncomplexed yttrium was retained on the column.

For data set [2] the following is noted: rat, in vivo, 120 min; for % Injected Dose in Liver: iv.
Method: (§2) Also samarium was injected as samarium chloride in unchelated form.
(§3) These animals were placed in cages and fed water and food ad libitum. The animals were acclimated for at least five days before use. Prior to injection of complex, the animals were placed under a heat lamp (15 to 30 minutes) to dilate the tail vein. Then, the animal was placed in a restraining cage, the tail cleaned with an alcohol swipe, and the animal injected (50 to 200 μl) via the tail vein. After injection, the animal was placed in another cage for two hours after which time the animal was sacrificed by cervical dislocation. The animal was then dissected, the parts rinsed with deionized H2 O , patted dry, and weighed into a tared counting vial. Whatever size of injection was made, at least three standards of the same material were prepared and counted with the animal parts.
(§4) Complexes were prepared by mixing a solution of ligand and metal then adjusting the pH to 7-8. The amount of metal that was complexed to ligand was determined by cation exchange chromatography. Free metal was retained by the resin, metal in the form of a complex was not.
(§5) One-hundred μl of the complexes were injected into the tail vein of three Sprague Dawley rats. Two hours after injection, the rats were killed by cervical dislocation and samples of tissues were taken. The tissues were weighed and the amount of radiation in each tissue determined by measuring the number of counts using a NaI well counter and comparing them to standards. […] The amount in bone was 25 times the % dose in a femur. The examples below differ in the ligand, amount of ligand and amount of metal used. Non-radioactive metal was used to obtain the desired ligand to metal ratios and tracer radioactive metal was used to obtain the biodistribution.
Data set [3] can be described thus: Inertness of samarium complex versus pH. The conditions noted are these: Sm. Format: physicochemical. As to the method: as §1
One portion was treated with 1-2 μl portions of 0.1N hydrochloric acid until the pH was lowered and the other portion was treated with 0.1N sodium hydroxide to bring the pH up. The complexes were allowed to set for 5-10 minutes at each pH change, then they were sampled to determine the percent complexation at that pH by the method described for Examples 16 through 33.
One portion was treated with 1-2 μl portions of 1.0N hydrochloric acid until the pH was lowered and the other portion was treated with 0.1N, 1.0N and 50 weight % sodium hydroxide to bring the pH up. The complexes were allowed to set for about 5 minutes at each pH change, then they were sampled to determine the percent complexation at that pH by the method described for Examples 16 through 33.

Data set [4] in a line: Percent complex determination, samarium complexes (Sephadex C-25 cation exchange). The data set is classed as physicochemical. The conditions noted are these: for % Complex, Sm / % Complex (10:1), Sm: samarium; for % Complex, Sm: ligand/metal ratio about 50:1 (** footnote); for % Complex (10:1), Sm: ligand/metal 10:1. As to the method:
as §1, with “100.” for “100. By this method, uncomplexed yttrium was retained on the column.”
Percent complex determination was made in the same manner as for the yttrium complex.

A short description of data set [5]: In vivo biodistribution of chelates in rats (% dose in organs). The settings on record: rat, 2 hours after i.v. injection.
Method: as §2, §3, §4, §5
Data set [6] in a line: Complex study: percent yttrium complex after addition of excess metal (lability). The settings on record: metal/ligand molar ratio 500, one-half hour after metal addition. The data set is classed as physicochemical. As to the method: as §1
The 1:1 complex of yttrium with 1-(p-aminobenzyl)diethylenetriaminepentaacetic acid (ABDTPA), a well known bifunctional chelant used in the literature, and with the ligand of Example 2 (Now Ex. XVI) and Example 12 (now Ex. XVII) were prepared using the techniques described earlier. Several 100 microliter aliquots were then withdrawn into separate centrifuge tubes. Excess metal was added such that the total volume change is minimized and the time noted. One-half hour after metal addition, the percent complex was determined by the Sephadex™ C-25 method and this was compared to the original amount of complex. The percent complex versus added metal gives an indication as to the lability of the ligand-metal complex. Results are given below and are compared to the EDTA-yttrium complex.

The conditions of data set [7]: patients with metastatic bone lesions; cited from earlier work.

Structures can show the parent of a compound that is named as a salt. Where two headings read alike, the source gives them in different places.

As to `Nc1ccc(O)c(C(C(=O)O)N(CCN(CC(=O)O)CC(=O)O)CC(=O)O)c1` (centres unmarked) [Example 5, 2-[(2-{[BIS(CARBOXYMETHYL)]AMINO}ETHYL)(CARBOXYMETHYL)AMINO]-2-(5-AMINO-2- HYDROXYPHENYL)ETHANOIC ACID], in data set [1], the “% Complex (10:1), Y” value worked out at 99%. The “% Injected Dose in Liver” value in data set [2] stood at 0.38%.

For the compound `Nc1ccc(O)c(C(NCCNC(C(=O)O)c2cc(N)ccc2O)C(=O)O)c1` (centres unmarked) [Example X, ethylenediaminedi(2-hydroxy-5-aminophenyl)acetic acid, reference compound], the “% Injected Dose in Liver” value in data set [2] is listed as 24%.

Take `Nc1ccc(OCC(=O)O)c(C(C(=O)O)N(CCN(CCN(CC(=O)O)CC(=O)O)CC(=O)O)CC(=O)O)c1` (centres unmarked) [Example 8, 2-[{2-[(2-{[BIS(CARBOXYMETHYL)]-AMINO}ETHYL)(CARBOXYMETHYL)AMINO]ETHYL}(CARBOXYMETHYL)AMINO]-2-[5-AMINO-2-(CARBOXYMETHYLOXY)PHENYL]ETHANOIC ACID]: the “% Complexed” value in data set [3] (pH 1, about 5 minutes) amounted to 91%; in data set [3] (pH 2, about 5 minutes), 88%; in data set [3] (pH 3, about 5 minutes), 92%; in data set [3] (pH 5, about 5 minutes), 96%; in data set [3] (pH 7, about 5 minutes) it was 96%; in data set [3] (pH 9, about 5 minutes), 99%. The “% Complexed” value in data set [3] (pH 12, about 5 minutes) was determined as 98%; in data set [3] (pH 13, about 5 minutes), 99%. The “percent complexation, Sm” value in data set [4] (as prepared, pH adjusted to about 7) is 96%. The “% Complex, Sm” value in data set [4] is given as more than 99%.

With `CC(=O)Nc1cc(CN(CCN(CC(=O)O)CC(=O)O)CC(=O)O)c(O)c(CN(CCN(CC(=O)O)CC(=O)O)CC(=O)O)c1` [Example 11], the “% Complex (10:1), Y” value in data set [1] was determined as 99%. Besides, in data set [1] (ligand/metal ratio about 1:1 (* footnote)), the “% Complex, Y” value stood at 98%.

Regarding “2-[BIS(2-{[(BIS(CARBOXYMETHYL)]AMINO}ETHYL)AMINO]-2-[5-AMINO-2-(CARBOXYMETHYLOXY)PHENYL]ETHANOIC ACID AND 2-[{2-[(2-{[BIS(CARBOXYMETHYL)]AMINO}ETHYL)(CARBOXYMETHYL)AMINO]ETHYL}(CARBOXYMETHYL)AMINO]-2-[5-AMINO-2-(CARBOXYMETHYLOXY)-PHENYL]ETHANOIC ACID [Example 7]”, the “% Complexed” value was 98% in data set [3] (pH 1, 5-10 minutes); 100% in data set [3] (pH 2, 5-10 minutes); 100% in data set [3] (pH 3, 5-10 minutes); 100% in data set [3] (pH 4, 5-10 minutes); 100% in data set [3] (pH 5, 5-10 minutes); 100% in data set [3] (pH 7, 5-10 minutes). Further, the “% Complexed” value in data set [3] (pH 9, 5-10 minutes) was 100%; in data set [3] (pH 11, 5-10 minutes), 100%; in data set [3] (pH 13, 5-10 minutes), 100%. The “percent Sm complexed” value in data set [4] (as prepared, pH adjusted to about 7.5) is 100%. In addition, the “% Complex, Sm” value in data set [4] is 96%.

Turning to “2-[bis(2-{[(bis(carboxymethyl)]amino}ethyl)amino]-2-[5-acetamido-2-(carboxymethyloxy)phenyl]ethanoic acid and 2-[{2-[(2-{[bis(carboxymethyl)]amino}ethyl)(carboxymethyl)amino]ethyl}(carboxymethyl)amino]-2-[5-acetamido-2-(carboxymethyloxy)-phenyl]ethanoic acid [Example 6]”, the “% Injected Dose in Liver” value in data set [5] (Sm complex, ligand/metal 10:1) stood at 0.38%. In data set [4], the “% Complex (10:1), Sm” value is reported as more than 99%.

`Nc1ccc(OCC(=O)O)c(C(C(=O)O)N(CCN(CC(=O)O)CC(=O)O)CC(=O)O)c1` (centres unmarked) [Example 3, 2-[(2-{[BIS(CARBOXYMETHYL)]AMINO}ETHYL)(CARBOXYMETHYL)AMINO]-2-[5-AMINO-2- (CARBOXYMETHLOXY)PHENYL]ETHANOIC ACID, PENTA SODIUM SALT]: the “% Complex (10:1), Y” value in data set [1] is recorded as more than 99%. Also, the “% Injected Dose in Liver” value in data set [2] turned out to be 0.22%.

Regarding `CC(=O)Nc1ccc(OCC(=O)O)c(C(C(=O)O)N(CCN(CC(=O)O)CC(=O)O)CC(=O)O)c1` (centres unmarked) [Example 2, 2-[(2-{[bis(carboxymethyl)]amino}ethyl)(carboxymethyl)amino]-2-[5-acetamido-2-(carboxymethyloxy)phenyl]ethanoic acid], the “% Complex (10:1), Sm” value in data set [4] is more than 99%. In data set [1], the “% Complex (10:1), Y” value is given as more than 99%. Also, the “% Complex” value in data set [6] is reported as 75%. Also, the “% Injected Dose in Liver” value in data set [2] is recorded as 0.22%.

Regarding `[Cl][Sm]([Cl])[Cl]` [SmCl3, samarium chloride, reference compound], in data set [5] (samarium chloride in unchelated form), the “% Injected Dose in Liver” value is recorded as 39%.

For the compound “2-[(2-[(2-[(2-{[BIS(CARBOXYMETHYL)]AMINO}ETHYL)(CARBOXYMETHYL)AMINO]ETHYL)(CARBOXYMETHYL)AMINO]ETHYL)(CARBOXYMETHYL)AMINO]-2-[5-ACETAMIDO-2-(CARBOXYMETHYLOXY)PHENYL]ETHANOIC ACID AND 2[(2-[(2-{[BIS(CARBOXYMETHYL)]AMINO}ETHYL)(CARBOXY-METHYL)AMINO]ETHYL)(2-{[BIS(CARBOXYMETHYL)]AMINO}-ETHYL)AMINO]-2-[5-ACETAMIDO-2-(CARBOXYMETHYLOXY)PHENYL]-ETHANOIC ACID [Example 9]”, the “% Injected Dose in Liver” value in data set [5] (Sm complex, ligand/metal 10:1) is 2.8%. The “% Complex (10:1), Sm” value in data set [4] is recorded as more than 99%.

With `CC(=O)Nc1ccc(O)c(C(NCCN(CC(=O)O)CC(=O)O)C(=O)O)c1` (centres unmarked) [Example 1, 2-[(2-{[bis(carboxymethyl)]amino}ethyl)amino]-2-(5-acetamido-2-hydroxyphenyl)ethanoic acid], the “% Complex (10:1), Y” value in data set [1] is 98%. In data set [2], the “% dose in the blood” value is on record as 0.57%, the “% dose in the bone” value came to 56.1%, the “% dose in the muscle” value stood at 0.78% and the “% dose in the spleen” value was found to be 0.03%. In addition, in data set [2], the “% Injected Dose in Liver” value was found to be 0.87%.

In the case of `CC(=O)Nc1ccc(O)c(C(C(=O)O)N(CC#N)CCN(CC(=O)O)CC(=O)O)c1` (centres unmarked) [Example 4, 2-[(2-{[bis(carboxymethyl)]amino}ethyl)(cyanomethyl)amino]-2-(5-acetamido-2-hydroxyphenyl)ethanoic acid], the “% Complex (10:1), Y” value in data set [1] is more than 99%. For the same compound, the “% Injected Dose in Liver” value in data set [2] is 1.4%.

For the compound `CC(=O)Nc1cc(CN(CCN(CC(=O)O)CC(=O)O)CC(=O)O)c(O)c(CN(CC(=O)O)CC(=O)O)c1` [Example 15, 2-({[BIS(CARBOXYMETHYL)]AMINO}METHYL)-6-{[({[BIS(CARBOXYMETHYL)]AMINO}ETHYL)(CARBOXYMETHYL)AMINO]METHYL}-4-(ACETAMIDO)PHENOL], the “% Complex (10:1), Y” value in data set [1] is 99%. Besides, the “% Injected Dose in Liver” value in data set [2] was 0.37%.

With `CC(=O)Nc1ccc(O)c(CN(CCN(CC(=O)O)Cc2cc(NC(C)=O)ccc2O)CC(=O)O)c1` [Example U, N,N'-DI(2-HYDROXY, 5-ACETAMIDOBENZYL)ETHYLENEDIAMINE-N,N'-DIACETIC ACID, reference compound], the “% Injected Dose in Liver” value in data set [5] (Sm complex, comparative, ligand/metal ratio not stated) is given as 12%.

As for `[89Sr]` [Strontium-89], in data set [7], the blood levels result is reported as “high blood levels” and the “lesion to normal bone ratios” value was “low lesion to normal bone ratios”.

Source of the values: patent publication US5696239A (The Dow Chemical Company, priority 1995, dated 1997).
